We go through 9 compounds from ChEMBL document CHEMBL3137667, “[Drug-induced liver injury; fourteenth updated edition of the bibliographic database of liver injuries and related drugs]” (Gastroenterol Clin Biol, 2004).

For series [1] the following is noted: human, serum.
The conditions of series [2]: human.
The conditions of series [3]: human. This is another data set of the same source.
The conditions of series [4]: human. The source holds these as a separate data set.
The conditions of series [5]: human. The source holds these as a separate data set.
For series [6] the following is noted: human. This is another data set of the same source.
For series [7] the following is noted: human. This is another data set of the same source.
The conditions of series [8]: human, serum. The source holds these as a separate data set.
The conditions of series [9]: human. This is another data set of the same source.
For series [10] the following is noted: human. The source holds these as a separate data set.
The conditions of series [11]: human. This is another data set of the same source.
The nature of series [12]: Highest frequency of acute liver toxicity observed during clinical trials, expressed as a percentage. [column '% AIGUE' in source]. Conditions: human.
For series [13] the following is noted: human, serum, 4383 h.
Series [14] is described as follows: Highest frequency of moderate liver toxicity observed during clinical trials, expressed as a percentage. [column '% BIOL' in source]. Particulars: human.
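For Hepatotoxicity (association with vascular disease) in this document: count of indexed literature references reporting vascular liver injury in humans, e.g. peliosis hepatitis, hepatic veno-occlusive disease or Budd-Chiari syndrome.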
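For Hepatotoxicity (benign tumour) in this document: value is a count of indexed literature references citing a benign tumour confirmed by histopathology.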
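For Hepatotoxicity (choleostasis) in this document: human cholestatic liver injury, shown by histopathology or by peak ALT or AST elevation over alkaline phosphatase ratio below 2, value counts indexed literature reports.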
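For Hepatotoxicity (chronic liver disease) in this document: chronic liver injury confirmed by histopathology or persistently raised serum aminotransferase activity beyond 6 months, value given as the count of indexed literature references.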
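For Hepatotoxicity (cirrhosis) in this document: value is a count of indexed literature references reporting cirrhosis confirmed by histopathology.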
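For Hepatotoxicity (cytolytic) in this document: human cytolytic liver injury, shown by histopathology or by a ratio above 5 of peak ALT or AST elevation to alkaline phosphatase elevation, value counts indexed references.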
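For Hepatotoxicity (granulomatous hepatitis) in this document: value is a count of indexed literature references reporting granulomatous liver disease confirmed by histopathology.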
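For Hepatotoxicity (malignant tumour) in this document: malignant tumour confirmed by histopathology, value gives the count of indexed literature references reporting it.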
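For Hepatotoxicity (severe hepatitis) in this document: human clinical data: severe hepatitis, meaning potentially life-threatening liver failure or clinically observed cases, the value counts how many indexed literature references report it.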
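For Hepatotoxicity (steatosis) in this document: steatosis confirmed by histopathology, value is the count of indexed references.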

In the case of `Cc1nc(C)c2c(n1)N(Cc1ccc(-c3ccccc3-c3nnn[nH]3)cc1)C(=O)CC2` [TASOSARTAN], the “Hepatotoxicity (moderate)” value in series [1] came out at 2; in [14], 1.9%. In addition, the “Hepatotoxicity (benign tumour)” value in series [2] turned out to be 0. Besides, in series [3], the “Hepatotoxicity (cirrhosis)” value was determined as 0. Besides, in series [4], the “Hepatotoxicity (granulomatous hepatitis)” value is reported as 0. Besides, the “Hepatotoxicity (cytolytic)” value in [5] came to 0. Moreover, the “Hepatotoxicity (steatosis)” value in series [6] stood at 0. In addition, the “Hepatotoxicity (malignant tumour)” value in series [7] stood at 0. In addition, the “Hepatotoxicity (acute)” value in series [8] came to 0; in [12] it was 0%. In [9], the “Hepatotoxicity (severe hepatitis)” value was 0. In addition, in [10], the “Hepatotoxicity (association with vascular disease)” value turned out to be 0. Further, the “Hepatotoxicity (choleostasis)” value in series [11] is listed as 0. Also, in series [13], the “Hepatotoxicity (chronic liver disease)” value is 0.

Turning to `CC(=O)NCCCCCCNC(C)=O` [HEXAMETHYLENEBISACETAMIDE], the “Hepatotoxicity (moderate)” value in series [1] is 0; in series [14] it was 0%. The “Hepatotoxicity (benign tumour)” value in [2] was 0. In addition, in [3], the “Hepatotoxicity (cirrhosis)” value is 0. In [4], the “Hepatotoxicity (granulomatous hepatitis)” value came to 0. Moreover, the “Hepatotoxicity (cytolytic)” value in series [5] was found to be 1. Also, the “Hepatotoxicity (steatosis)” value in series [6] stood at 0. Further, in series [7], the “Hepatotoxicity (malignant tumour)” value worked out at 0. Besides, the results for the “Hepatotoxicity (acute)” value in [8] and in [12] were 1 and 0%, respectively. For the same compound, the “Hepatotoxicity (severe hepatitis)” value in series [9] stood at 0. In series [10], the “Hepatotoxicity (association with vascular disease)” value was found to be 0. The “Hepatotoxicity (choleostasis)” value in series [11] was 0. The “Hepatotoxicity (chronic liver disease)” value in [13] is given as 0.

With `CO[C@@]1(NC(=O)C(C(=O)[O-])c2ccc(O)cc2)C(=O)N2C(C(=O)[O-])=C(CSc3nnnn3C)CO[C@@H]21.[Na+].[Na+]` (stereo partly specified) [MOXALACTAM DISODIUM], the entries for the “Hepatotoxicity (moderate)” value in series [1] and in series [14] were 13 and 36.5%, respectively. Moreover, the “Hepatotoxicity (benign tumour)” value in series [2] stood at 0. The “Hepatotoxicity (cirrhosis)” value in series [3] was determined as 0. The “Hepatotoxicity (granulomatous hepatitis)” value in series [4] worked out at 0. Further, the “Hepatotoxicity (cytolytic)” value in series [5] is 0. In addition, the “Hepatotoxicity (steatosis)” value in series [6] is listed as 0. Also, the “Hepatotoxicity (malignant tumour)” value in [7] is on record as 0. In addition, the “Hepatotoxicity (acute)” value in series [8] came out at 1; in series [12], 3.3%. For the same compound, in series [9], the “Hepatotoxicity (severe hepatitis)” value is given as 0. For the same compound, the “Hepatotoxicity (association with vascular disease)” value in [10] came out at 0. Also, the “Hepatotoxicity (choleostasis)” value in [11] was 1. The “Hepatotoxicity (chronic liver disease)” value in [13] turned out to be 0.

As to `CC(=O)OCOC(=O)C1=C(COC(N)=O)SC2[C@H]([C@H](C)O)C(=O)N12` (stereo partly specified), the “Hepatotoxicity (moderate)” value in [1] came to 25; in [14], 20%. Moreover, the “Hepatotoxicity (benign tumour)” value in series [2] worked out at 0. Further, in series [3], the “Hepatotoxicity (cirrhosis)” value is listed as 0. Also, in series [4], the “Hepatotoxicity (granulomatous hepatitis)” value worked out at 0. The “Hepatotoxicity (cytolytic)” value in series [5] was 0. Moreover, the “Hepatotoxicity (steatosis)” value in series [6] is reported as 0. Also, the “Hepatotoxicity (malignant tumour)” value in series [7] was found to be 0. The entries for the “Hepatotoxicity (acute)” value in series [8] and in [12] were 0 and 0%, respectively. The “Hepatotoxicity (severe hepatitis)” value in series [9] amounted to 0. The “Hepatotoxicity (association with vascular disease)” value in [10] worked out at 0. The “Hepatotoxicity (choleostasis)” value in series [11] is 0. Besides, the “Hepatotoxicity (chronic liver disease)” value in [13] was found to be 0.

Regarding `O=C(O)c1ccccc1C(=O)Nc1ccc(S(=O)(=O)Nc2nccs2)cc1` [PHTHALYLSULFATHIAZOLE], the results for the “Hepatotoxicity (moderate)” value in [1] and in [14] were 0 and 0%, respectively. Also, in [2], the “Hepatotoxicity (benign tumour)” value is 0. Besides, the “Hepatotoxicity (cirrhosis)” value in series [3] stood at 0. Also, the “Hepatotoxicity (granulomatous hepatitis)” value in [4] was 0. Moreover, the “Hepatotoxicity (cytolytic)” value in [5] was 0. In addition, the “Hepatotoxicity (steatosis)” value in series [6] is on record as 0. Also, the “Hepatotoxicity (malignant tumour)” value in series [7] is recorded as 0. The “Hepatotoxicity (acute)” value in [8] was determined as 1; in series [12], 0%. Moreover, the “Hepatotoxicity (severe hepatitis)” value in series [9] is reported as 0. Besides, in series [10], the “Hepatotoxicity (association with vascular disease)” value was found to be 0. For the same compound, the “Hepatotoxicity (choleostasis)” value in [11] stood at 0. Besides, the “Hepatotoxicity (chronic liver disease)” value in series [13] came to 0.

On to `Cc1[nH]c(=O)c(C#N)cc1-c1ccncc1` [MILRINONE], for which the “Hepatotoxicity (moderate)” value is listed as 2 in [1] and 2% in [14]. In addition, the “Hepatotoxicity (benign tumour)” value in [2] came out at 0. For the same compound, the “Hepatotoxicity (cirrhosis)” value in [3] came to 0. Moreover, the “Hepatotoxicity (granulomatous hepatitis)” value in series [4] was 0. Besides, the “Hepatotoxicity (cytolytic)” value in series [5] is on record as 0. Besides, the “Hepatotoxicity (steatosis)” value in series [6] is given as 0. Further, in series [7], the “Hepatotoxicity (malignant tumour)” value is 0. In addition, the results for the “Hepatotoxicity (acute)” value in series [8] and in series [12] were 0 and 0%, respectively. For the same compound, the “Hepatotoxicity (severe hepatitis)” value in series [9] is given as 0. Also, the “Hepatotoxicity (association with vascular disease)” value in series [10] is recorded as 0. Also, the “Hepatotoxicity (choleostasis)” value in series [11] came out at 0. In addition, the “Hepatotoxicity (chronic liver disease)” value in series [13] is 0.

For `CN[C@@H]1[C@@H](O)[C@@H](O[C@@H]2[C@@H](O)[C@H](O[C@H]3OC(CN)=CC[C@H]3N)[C@@H](N)C[C@H]2N)OC[C@]1(C)O` [SISOMICIN], the “Hepatotoxicity (moderate)” value in [1] was found to be 2; in [14] it was 5.7%. For the same compound, the “Hepatotoxicity (benign tumour)” value in series [2] turned out to be 0. In addition, in series [3], the “Hepatotoxicity (cirrhosis)” value is given as 0. Besides, the “Hepatotoxicity (granulomatous hepatitis)” value in series [4] turned out to be 0. For the same compound, the “Hepatotoxicity (cytolytic)” value in [5] amounted to 0. In addition, the “Hepatotoxicity (steatosis)” value in [6] stood at 0. In addition, the “Hepatotoxicity (malignant tumour)” value in series [7] was determined as 0. Also, the “Hepatotoxicity (acute)” value in series [8] was found to be 0; in series [12] it was 0%. Also, the “Hepatotoxicity (severe hepatitis)” value in series [9] amounted to 0. In addition, the “Hepatotoxicity (association with vascular disease)” value in [10] came to 0. Besides, the “Hepatotoxicity (choleostasis)” value in series [11] stood at 0. The “Hepatotoxicity (chronic liver disease)” value in series [13] was 0.

Take `CN1C[C@H](C(=O)N[C@]2(C)O[C@@]3(O)[C@@H]4CCCN4C(=O)[C@H](Cc4ccccc4)N3C2=O)C=C2c3cccc4[nH]cc(c34)C[C@H]21` [ERGOTAMINE]: the “Hepatotoxicity (moderate)” value in [1] amounted to 1; in series [14], 35.7%. Further, the “Hepatotoxicity (benign tumour)” value in series [2] worked out at 0. Besides, in series [3], the “Hepatotoxicity (cirrhosis)” value was 0. In addition, the “Hepatotoxicity (granulomatous hepatitis)” value in [4] came to 0. Also, in series [5], the “Hepatotoxicity (cytolytic)” value is recorded as 0. For the same compound, in [6], the “Hepatotoxicity (steatosis)” value was determined as 0. The “Hepatotoxicity (malignant tumour)” value in series [7] was 0. For the same compound, the “Hepatotoxicity (acute)” value in series [8] turned out to be 0; in series [12], 0%. In series [9], the “Hepatotoxicity (severe hepatitis)” value came to 0. For the same compound, the “Hepatotoxicity (association with vascular disease)” value in [10] was 0. Moreover, in series [11], the “Hepatotoxicity (choleostasis)” value turned out to be 0. The “Hepatotoxicity (chronic liver disease)” value in series [13] is on record as 0.

As for `CC(C)(Oc1ccc(Cl)cc1)C(=O)OCCOC(=O)c1cccnc1` [ETOFIBRATE], the “Hepatotoxicity (moderate)” value stood at 1 in [1] and 0% in series [14]. Further, the “Hepatotoxicity (benign tumour)” value in series [2] is reported as 0. Besides, the “Hepatotoxicity (cirrhosis)” value in series [3] is recorded as 0. In addition, the “Hepatotoxicity (granulomatous hepatitis)” value in series [4] stood at 0. Further, in series [5], the “Hepatotoxicity (cytolytic)” value is listed as 0. Moreover, the “Hepatotoxicity (steatosis)” value in series [6] was found to be 0. The “Hepatotoxicity (malignant tumour)” value in series [7] was 0. The “Hepatotoxicity (acute)” value is 0 in [8] and 0% in series [12]. The “Hepatotoxicity (severe hepatitis)” value in series [9] is listed as 0. Further, the “Hepatotoxicity (association with vascular disease)” value in series [10] was found to be 0. Also, the “Hepatotoxicity (choleostasis)” value in series [11] was found to be 0. In series [13], the “Hepatotoxicity (chronic liver disease)” value is recorded as 0.
